Measurements published in patent US8846636B2, “Nucleoside analogues with quaternary carbon stereogenic centers and methods of use” (LCB Pharma Inc., priority 2008, dated 2014).
pIC50: −log10 of the molar value.

Assays:
Type in all cases: cell-based
HCC1143 = test: MTT cell proliferation assay, HCC1143; details: HCC1143 cell line (mammary gland; breast)
Experimental: (§1) The antiviral and antitumor activities of the compounds of the invention were evaluated by a cellular proliferation assay. The MTT [3-(4,5-dimethylthiazol-2-yl)-2,5-diphenyltetrazolium bromide] assay, first described by Mosmann (Mosmann T., “Rapid colorimetric assay for cellular growth and survival: application to proliferation and cytotoxicity assays,” J. Immunol. Methods 1983 Dec. 16; 65(1-2):55-63, and incorporated by reference in its entirety) is based on the ability of a mitochondrial dehydrogenase enzyme from viable cells to cleave the tetrazolium rings of the pale yellow MTT. The cleavage reaction form a dark blue formazan crystals which is largely impermeable to cell membranes and accumulation within healthy cells. Solubilisation of the cells by the addition of a detergent liberates and solubilizes the crystals. The number of surviving cells is directly proportional to the level of the formazan product created. The color can then be quantified using a simple colorimetric assay. The results can be read on a multiwell scanning spectrophotometer (ELISA reader).
(§2) In Tables 1 and 2, IC50 values are presented for various cell lines in micromolar units (μm), “Gemci” is Gemcitabine, and “5-FU” is 5-fluorouracil.

NCI H1395 = test: MTT cell proliferation assay, NCI H1395
Experimental: as §1, §2

786-O = test: MTT cell proliferation assay, 786-O; details: 786-O cell line (kidney)
Experimental: as §1, §2

1A6 = test: MTT cell proliferation assay, 1A6; details: 1A6 cell line (urinary bladder)
Experimental: as §1, §2

MOLT-4 = test: MTT cell proliferation assay, MOLT-4
Experimental: as §1, §2

NCI H2052 = test: MTT cell proliferation assay, NCI H2052; details: NCI H2052 cell line (tumor stage 4 derived from pleural effusion)
Experimental: as §1, §2

MCF7 = test: MTT cell proliferation assay, MCF7; details: MCF7 cell line (mammary gland; breast)
Experimental: as §1, §2

PFSK-1 = test: MTT cell proliferation assay, PFSK-1; details: PFSK-1 cell line (brain)
Experimental: as §1, §2

OVCAR3 = test: MTT cell proliferation assay, OVCAR3; details: OVCAR3 cell line (ovary)
Experimental: as §1, §2

HL-60 = test: MTT cell proliferation assay, HL-60; details: HL-60 cell line (acute promyelocytic leukemia)
Experimental: as §1, §2

ZR-75-1 = test: MTT cell proliferation assay, ZR-75-1; details: ZR-75-1 cell line (mammary gland; breast)
Experimental: as §1, §2

HCT 116 = test: MTT cell proliferation assay, HCT 116; details: HCT 116 cell line (colon)
Experimental: as §1, §2

BxPC-3 = test: MTT cell proliferation assay, BxPC-3; details: BxPC-3 cell line (pancreas)
Experimental: as §1, §2

DLD-1 = test: MTT cell proliferation assay, DLD-1; details: DLD-1 cell line (colon)
Experimental: as §1, §2

Colo 829 = test: MTT cell proliferation assay, Colo 829; details: Colo 829 cell line (skin)
Experimental: as §1, §2

22Rv1 = test: MTT cell proliferation assay, 22Rv1; details: 22Rv1 cell line (prostate)
Experimental: as §1, §2

[1] = Homo sapiens, NCI-H1395, NCI H1395 cell line (lung)
[2] = Homo sapiens, MOLT-4, MOLT-4 cell line (acute lymphoblastic leukemia)

pIC50 (HCC1143; Homo sapiens)	pIC50 (786-O; Homo sapiens, 786-0)	pIC50 (MOLT-4; [2])	pIC50 (MCF7; Homo sapiens)	pIC50 (OVCAR3; Homo sapiens, OVCAR-3)	pIC50 (HL-60; Homo sapiens)	pIC50 (HCT 116; Homo sapiens)	pIC50 (BxPC-3; Homo sapiens)	pIC50 (DLD-1; Homo sapiens)	pIC50 (Colo 829; Homo sapiens)	pIC50 (22Rv1; Homo sapiens)	Compound	pIC50 (NCI H1395; [1])	pIC50 (1A6)	pIC50 (NCI H2052; Homo sapiens)	pIC50 (PFSK-1; Homo sapiens)	pIC50 (ZR-75-1; Homo sapiens)	further results
3.32	3.34	3.59	3.55	3.55	3.60	3.39	3.80	3.36			CC12C(=O)OC[C@H]1O[C@@H](n1ccc(N)nc1=O)C2O (mixture of isomers) [LCB-1079, 4-amino-1-((2R,3R,3αR,6αS)-3-hydroxy-3α-methyl-4-oxohexahydrofuro[3,4-β]furan-2-yl)pyrimidin-2(1H)-one]	< 3.30	3.46	3.51	3.89	3.42	
											((2S,3S,4R,5R)-5-(2-amino-6-chloro-9H-purin-9-yl)-4-hydroxy-3-methyltetrahydrofuran-2,3-diyl)dimethanol (A), ((2S,3S,4R,5R)-5-(6-amino-2-chloro-9H-purin-9-yl)-4-hydroxy-3-methyltetrahydrofuran-2,3-diyl)dimethanol (B) [LCB-1094]		< 3.30				pIC50 (HCC1143): < 3.30; pIC50 (NCI H1395; NCI H1395 cell line (lung)): < 3.30; pIC50 (786-O): < 3.30; pIC50 (MOLT-4; MOLT-4 cell line (acute lymphoblastic leukemia)): < 3.30; pIC50 (Colo 829): < 3.30; pIC50 (NCI H2052): < 3.30; pIC50 (MCF7): < 3.30; pIC50 (PFSK-1): < 3.30; pIC50 (OVCAR3): < 3.30; pIC50 (HL-60): < 3.30; pIC50 (ZR-75-1): < 3.30; pIC50 (HCT 116): < 3.30; pIC50 (BxPC-3): < 3.30; pIC50 (22Rv1): < 3.30; pIC50 (DLD-1): < 3.30
< 3.30	< 3.30	< 3.30	< 3.30	< 3.30	< 3.30	< 3.30	< 3.30	< 3.30	< 3.30	< 3.30	C[C@]1(C(N)=O)[C@H](O)[C@@H](n2ccc(N)nc2=O)O[C@@H]1CO [LCB-1087, (2S,3S,4S,5S)-5-(4-amino-2-oxopyrimidin-1(2H)-yl)-4-hydroxy-2-(hydroxymethyl)-3-methyltetrahydrofuran-3-carboxamide]	< 3.30	< 3.30		< 3.30	< 3.30	
< 4.00	< 4.00	4.10	< 4.00	< 4.00	< 4.00	< 4.00	< 4.00	< 4.00	< 4.00	< 4.00	C[C@]1(C(=O)NN)[C@@H](CO)O[C@@H](n2cc(F)c(N)nc2=O)[C@@H]1O [LCB-1085, (2S,3R,4R,5R)-5-(4-amino-5-fluoro-2-oxopyrimidin-1(2H)-yl)-4-hydroxy-2-(hydroxymethyl)-3-methyltetrahydrofuran-3-carbohydrazide]	< 4.00	< 4.00	< 4.00	< 4.00	< 4.00	
< 3.30	< 3.30	< 3.30	< 3.30	< 3.30	< 3.30	< 3.30	< 3.30	< 3.30	< 3.30	< 3.30	CC1(CO)C(O)C(n2cnc3c(N)nc(Cl)nc32)O[C@@H]1CO (stereo in doubt) [LCB-1091, ((2S,3R,4R,5R)-5-(6-amino-2-chloro-9H-purin-9-yl)-4-hydroxy-3-methyltetrahydrofuran-2,3-diyl)dimethanol]	< 3.30	< 3.30	< 3.30	< 3.30	< 3.30	
< 3.30	< 3.30	< 3.30	< 3.30	< 3.30	< 3.30	< 3.30	< 3.30	< 3.30	< 3.30	< 3.30	C[C@@]1(CO)[C@@H](CO)O[C@@H](n2cc(F)c(N)nc2=O)[C@@H]1O [LCB-1096, 4-amino-5-fluoro-1-((2R,3R,4S,5S)-3-hydroxy-4,5-bis(hydroxymethyl)-4-methyltetrahydrofuran-2-yl)pyrimidin-2(1H)-one]	< 3.30	< 3.30	< 3.30	< 3.30	< 3.30	
< 4.00	< 4.00	< 4.00	< 4.00	< 4.00	< 4.00	< 4.00	4.05	< 4.00	< 4.00	< 4.00	CCOC(=O)C1(C)[C@@H](CO)O[C@H](n2cnc3c(NN)nc(NN)nc32)[C@@H]1O (stereo partly drawn) [LCB-1086]	< 4.00	< 4.00		4.01	< 4.00	
< 3.30	< 3.30	< 3.30	< 3.30		< 3.30			< 3.30	< 3.30		CC1(CO)C(O)C(n2cc(F)c(N)nc2=O)O[C@@H]1CO (stereo partly drawn) [LCB-1082, 4-amino-5-fluoro-1-((2S,3S,4S,5S)-3-hydroxy-4,5-bis(hydroxymethyl)-4-methyltetrahydrofuran-2-yl)pyrimidin-2(1H)-one; 4-amino-5-fluoro-1-((2R,3R,4S,5S)-3-hydroxy-4,5-bis(hydroxymethyl)-4-methyltetrahydrofuran-2-yl)pyrimidin-2(1H)-one]	< 3.30	< 3.30	< 3.30	< 3.30	< 3.30	
< 3.30	< 3.30	< 3.30	< 3.30	< 3.30	< 3.30	< 3.30	< 3.30	< 3.30	< 3.30	< 3.30	CC1(CO)C(O)[C@H](n2cnc3c(=O)nc(N)[nH]c(=O)c32)O[C@@H]1CO (stereo in doubt) [LCB-1097, 6-amino-1-((2R,3R,4S,5S)-3-hydroxy-4,5-bis(hydroxymethyl)-4-methyltetrahydrofuran-2-yl)imidazo[4,5-e][1,3]diazepine-4,8(1H,5H)-dione]	< 3.30	< 3.30	< 3.30	< 3.30	3.68	
< 3.30	< 3.30		< 3.30	< 3.30	< 3.30	< 3.30	< 3.30	< 3.30	< 3.30		C[C@]1(CO)C(O)[C@H](n2ccc(N)nc2=O)O[C@@H]1CO (stereo partly drawn) [compound 1056]	3.36	< 3.30	< 3.30	< 3.30	< 3.30	
< 3.30	< 3.30	< 3.30	< 3.30		< 3.30			< 3.30	< 3.30		CC12C(=O)OC[C@H]1O[C@@H](n1cc(F)c(N)nc1=O)C2O (mixture of isomers) [LCB-1080, 4-amino-5-fluoro-1-((2R,3R,3αR,6αS)-3-hydroxy-3α-methyl-4-oxohexahydrofuro[3,4-β]furan-2-yl)pyrimidin-2(1H)-one]	< 3.30	< 3.30	< 3.30	< 3.30	< 3.30	
